Results: ChEMBL document CHEMBL3885881, “DrugMatrix”

Species on record: Rattus norvegicus
Assay: DrugMatrix - Regimen: Daily Repeat
Format: toxicity, organism-based, Sprague-Dawley
Design: regimen Daily Repeat, gender Male, age 6-8 weeks
Details: in vivo, po, route oral GAVAGE, vehicle 100 % SALINE; for ABSOLUTE BASOPHIL / ABSOLUTE EOSINOPHIL / ABSOLUTE LYMPHOCYTE / ABSOLUTE MONOCYTE / ABSOLUTE SEGMENTED NEUTROPHIL / BASOPHIL / EOSINOPHIL / ERYTHROCYTE COUNT / HEMATOCRIT / HEMOGLOBIN / LEUKOCYTE COUNT / MEAN CORPUSCULAR HEMOGLOBIN / MEAN CORPUSCULAR HEMOGLOBIN CONCENTRATION / MEAN CORPUSCULAR VOLUME / MONOCYTE / NEUTROPHIL / NUCLEATED RED BLOOD CELLS / PLATELET COUNT: tissue Blood; for ALANINE AMINOTRANSFERASE / ALBUMIN / ALKALINE PHOSPHATASE / ASPARTATE AMINOTRANSFERASE / BLOOD UREA NITROGEN / CARBON DIOXIDE / CHLORIDE / CHOLESTEROL / CREATINE PHOSPHOKINASE / CREATININE / GLUCOSE / LACTATE DEHYDROGENASE / LIPASE / PHOSPHORUS / POTASSIUM / SODIUM / TOTAL BILIRUBIN / TOTAL PROTEIN / URIC ACID: tissue Plasma
[1] = 0 mg/kg, 72 h, dose level Control, time 3 day
[2] = 0 mg/kg, 120 h, dose level Control, time 5 day
[3] = 40 mg/kg, 72 h, dose level Low, time 3 day

Oc1ccccc1O [CATECHOL]
ABSOLUTE BASOPHIL [1]: 0 CELLS/uL
ABSOLUTE EOSINOPHIL [1]: 65.67 CELLS/uL
ABSOLUTE LYMPHOCYTE [1]: 17283.5 CELLS/uL
ABSOLUTE MONOCYTE [1]: 0 CELLS/uL
ABSOLUTE SEGMENTED NEUTROPHIL [1]: 1284.17 CELLS/uL
BASOPHIL [1]: 0%
EOSINOPHIL [1]: 0.33%
ERYTHROCYTE COUNT [1]: 5.46 x10E6/uL
HEMATOCRIT [1]: 34.28%
HEMOGLOBIN [1]: 13.78 G/DL
LEUKOCYTE COUNT [1]: 18.63 x10E3/uL
MEAN CORPUSCULAR HEMOGLOBIN [1]: 25.3 pg
MEAN CORPUSCULAR HEMOGLOBIN CONCENTRATION [1]: 40.22 G/DL
MEAN CORPUSCULAR VOLUME [1]: 62.87 fL
MONOCYTE [1]: 0%
NEUTROPHIL [1]: 7%
NUCLEATED RED BLOOD CELLS [1]: 0 /100WBC
PLATELET COUNT [1]: 1244.83 x10E3/uL
ALANINE AMINOTRANSFERASE [1]: 52.83 u/L
ALBUMIN [1]: 4 G/DL
ALKALINE PHOSPHATASE [1]: 327.67 u/L
ASPARTATE AMINOTRANSFERASE [1]: 78.83 u/L
BLOOD UREA NITROGEN [1]: 13.83 mg/dL
CARBON DIOXIDE [1]: 26.67 mmol/L
CHLORIDE [1]: 99.67 MEQ/L
CHOLESTEROL [1]: 69 mg/dL
CREATINE PHOSPHOKINASE [1]: 350.17 u/L
CREATININE [1]: 0.21 mg/dL
GLUCOSE [1]: 173.83 mg/dL
LACTATE DEHYDROGENASE [1]: 168.33 u/L
LIPASE [1]: 11 u/L
PHOSPHORUS [1]: 12.7 mg/dL
POTASSIUM [1]: 6.88 MEQ/L
SODIUM [1]: 141.68 MEQ/L
TOTAL BILIRUBIN [1]: 0.22 mg/dL
TOTAL PROTEIN [1]: 6.02 G/DL
URIC ACID [1]: 1.9 mg/dL
ABSOLUTE BASOPHIL [2]: 0 CELLS/uL
ABSOLUTE EOSINOPHIL [2]: 14.83 CELLS/uL
ABSOLUTE LYMPHOCYTE [2]: 12880 CELLS/uL
ABSOLUTE MONOCYTE [2]: 90.67 CELLS/uL
ABSOLUTE SEGMENTED NEUTROPHIL [2]: 864.5 CELLS/uL
BASOPHIL [2]: 0%
EOSINOPHIL [2]: 0.17%
ERYTHROCYTE COUNT [2]: 5.83 x10E6/uL
HEMATOCRIT [2]: 35.87%
HEMOGLOBIN [2]: 14 G/DL
LEUKOCYTE COUNT [2]: 13.85 x10E3/uL
MEAN CORPUSCULAR HEMOGLOBIN [2]: 24.03 pg
MEAN CORPUSCULAR HEMOGLOBIN CONCENTRATION [2]: 39.03 G/DL
MEAN CORPUSCULAR VOLUME [2]: 61.53 fL
MONOCYTE [2]: 0.67%
NEUTROPHIL [2]: 6.67%
NUCLEATED RED BLOOD CELLS [2]: 0 /100WBC
PLATELET COUNT [2]: 1041.83 x10E3/uL
ALANINE AMINOTRANSFERASE [2]: 56 u/L
ALBUMIN [2]: 4.47 G/DL
ALKALINE PHOSPHATASE [2]: 319 u/L
ASPARTATE AMINOTRANSFERASE [2]: 89.17 u/L
BLOOD UREA NITROGEN [2]: 15.2 mg/dL
CARBON DIOXIDE [2]: 24 mmol/L
CHLORIDE [2]: 104.4 MEQ/L
CHOLESTEROL [2]: 69.5 mg/dL
CREATINE PHOSPHOKINASE [2]: 295.83 u/L
CREATININE [2]: 0.21 mg/dL
GLUCOSE [2]: 124.33 mg/dL
LACTATE DEHYDROGENASE [2]: 325.5 u/L
LIPASE [2]: 14.67 u/L
PHOSPHORUS [2]: 11.45 mg/dL
POTASSIUM [2]: 6.74 MEQ/L
SODIUM [2]: 151.4 MEQ/L
TOTAL BILIRUBIN [2]: 0.23 mg/dL
TOTAL PROTEIN [2]: 6.45 G/DL
URIC ACID [2]: 1.18 mg/dL
ABSOLUTE BASOPHIL [3]: 0 CELLS/uL
ABSOLUTE EOSINOPHIL [3]: 0 CELLS/uL
ABSOLUTE LYMPHOCYTE [3]: 14994 CELLS/uL
ABSOLUTE MONOCYTE [3]: 0 CELLS/uL
ABSOLUTE SEGMENTED NEUTROPHIL [3]: 739.33 CELLS/uL
BASOPHIL [3]: 0%
EOSINOPHIL [3]: 0%
ERYTHROCYTE COUNT [3]: 5.48 x10E6/uL
HEMATOCRIT [3]: 33.5%
HEMOGLOBIN [3]: 13.33 G/DL
LEUKOCYTE COUNT [3]: 15.73 x10E3/uL
MEAN CORPUSCULAR HEMOGLOBIN [3]: 24.37 pg
MEAN CORPUSCULAR HEMOGLOBIN CONCENTRATION [3]: 39.87 G/DL
MEAN CORPUSCULAR VOLUME [3]: 61.1 fL
MONOCYTE [3]: 0%
NEUTROPHIL [3]: 4.67%
NUCLEATED RED BLOOD CELLS [3]: 0 /100WBC
PLATELET COUNT [3]: 1095.33 x10E3/uL
ALANINE AMINOTRANSFERASE [3]: 43.67 u/L
ALBUMIN [3]: 4.2 G/DL
ALKALINE PHOSPHATASE [3]: 287 u/L
ASPARTATE AMINOTRANSFERASE [3]: 70.67 u/L
BLOOD UREA NITROGEN [3]: 13.33 mg/dL
CARBON DIOXIDE [3]: 23.67 mmol/L
CHLORIDE [3]: 101 MEQ/L
CHOLESTEROL [3]: 74 mg/dL
CREATINE PHOSPHOKINASE [3]: 350.33 u/L
CREATININE [3]: 0.22 mg/dL
GLUCOSE [3]: 176.67 mg/dL
LACTATE DEHYDROGENASE [3]: 113.33 u/L
LIPASE [3]: 10.33 u/L
PHOSPHORUS [3]: 11.93 mg/dL
POTASSIUM [3]: 6.1 MEQ/L
SODIUM [3]: 140.57 MEQ/L
TOTAL BILIRUBIN [3]: 0.17 mg/dL
TOTAL PROTEIN [3]: 6.13 G/DL
URIC ACID [3]: 2 mg/dL
